Reference: PMC12396409, “Screening and hit evaluation of a microbial metabolite library against the pathogenic Plasmodium falciparum and Toxoplasma gondii parasites” (International Journal for Parasitology: Drugs and Drug …, 2025)
Like-named read-outs stand apart in the source and are kept apart here.

Assays:
[1] = system: T. gondii RH strain (RH-Tub-eYFP) tachyzoites; test: microbe, parasite or virus in culture; type: cell-based, Toxoplasma gondii; details: 72 h; for percent parasite growth at 2 µg/mL: Toxoplasma gondii
[2] = system: P. falciparum 3D7 parasites; test: P. falciparum growth inhibition assay, 1-cycle (72 h treatment), SYBR DNA staining (library screen at 2 μg/mL and dose-response); type: cell-based, Plasmodium falciparum; details: for activity at 2 µg/mL: Plasmodium falciparum, 3D7
[3] = system: P. falciparum 3D7 parasites; test: P. falciparum growth inhibition assay, 2-cycle (120 h treatment), delayed-death screen and dose-response; type: cell-based, Plasmodium falciparum; details: for activity at 2 µg/mL: Plasmodium falciparum, 3D7
[4] = T. gondii, screen at 2 μg/mL, replicate 1
[5] = T. gondii, screen at 2 μg/mL, replicate 2
[6] = P. falciparum, 72 h, screen at 2 μg/mL, replicate 1
[7] = P. falciparum, 72 h, screen at 2 μg/mL, replicate 2
[8] = P. falciparum, 120 h, screen at 2 μg/mL, replicate 1
[9] = P. falciparum, 120 h, screen at 2 μg/mL, replicate 2

In the case of COc1c(-c2ccccc2)c2ccccc2[nH]c1=O [BIA-M1149], the Tg_72h_%Growth_Rep1 ([1]; T. gondii, parasite screen at 2 μg/mL, % growth, replicate 1) is reported as 136.04%, the Tg_72h_%Growth_Rep2 ([1]; T. gondii, parasite screen at 2 μg/mL, % growth, replicate 2) is reported as 92.92% and the Pf_72h_%Growth_Rep1 ([2]; P. falciparum 3D7, 72 h, parasite screen at 2 μg/mL, % growth, replicate 1) is reported as 89.32%. For the same compound, the Pf_72h_%Growth_Rep2 ([2]; P. falciparum 3D7, 72 h, parasite screen at 2 μg/mL, % growth, replicate 2) was 119.11%, the Pf_120h_%Growth_Rep1 ([3]; P. falciparum 3D7, 120 h, parasite screen at 2 μg/mL, % growth, replicate 1) was 106.21% and the Pf_120h_%Growth_Rep2 ([3]; P. falciparum 3D7, 120 h, parasite screen at 2 μg/mL, % growth, replicate 2) was 123.66%.

CC1(C)OC2CC(=O)OCC23C1CC(=O)C1(C)C3CCC2(C)C(c3ccoc3)OC(=O)C3OC321 (stereo not drawn) [BIA-L1755] gave a Tg_72h_%Growth_Rep1 ([1]; T. gondii RH, library screen at 2 μg/mL, % growth, replicate 1) of 135.94%, a Tg_72h_%Growth_Rep2 ([1]; T. gondii RH, library screen at 2 μg/mL, % growth, replicate 2) of 85.64% and a Pf_72h_%Growth_Rep1 ([2]; P. falciparum 3D7, 72 h, library screen at 2 μg/mL, % growth, replicate 1) of 83.85%. The Pf_72h_%Growth_Rep2 ([2]; P. falciparum 3D7, 72 h, library screen at 2 μg/mL, % growth, replicate 2) was 113.59%, the Pf_120h_%Growth_Rep1 ([3]; P. falciparum 3D7, 120 h, library screen at 2 μg/mL, % growth, replicate 1) was 93.20% and the Pf_120h_%Growth_Rep2 ([3]; P. falciparum 3D7, 120 h, library screen at 2 μg/mL, % growth, replicate 2) was 110.15%.

Compound C=CC(C)(C)[C@@]12C[C@H]3C(=O)N/C(=C/c4c[nH]cn4)C(=O)N3[C@@H]1Nc1ccccc12 [Roquefortine C] has a percent parasite growth at 2 µg/mL ([1]; T. gondii, parasite screen 2 μg/mL, % growth, replicate 1, read-out: Tg_72h_%Growth_Rep1) of 112%, a percent parasite growth at 2 µg/mL ([1]; T. gondii, parasite screen 2 μg/mL, % growth, replicate 2, read-out: Tg_72h_%Growth_Rep2) of 89.5% and an activity at 2 µg/mL ([2]; P. falciparum, 72 h, parasite screen 2 μg/mL, % growth, replicate 1, read-out: Pf_72h_%Growth_Rep1) of 76.2%. It also gave an activity at 2 µg/mL ([2]; P. falciparum, 72 h, parasite screen 2 μg/mL, % growth, replicate 2, read-out: Pf_72h_%Growth_Rep2) of 78.8%, an activity at 2 µg/mL ([3]; P. falciparum, 120 h, parasite screen 2 μg/mL, % growth, replicate 1, read-out: Pf_120h_%Growth_Rep1) of 73.1% and an activity at 2 µg/mL ([3]; P. falciparum, 120 h, parasite screen 2 μg/mL, % growth, replicate 2, read-out: Pf_120h_%Growth_Rep2) of 98.8%.

With O=C1N[C@@H](C[C@@]2(O)c3ccccc3N3C(=O)C[C@@H](c4ccccc4)N[C@H]32)C(=O)N[C@H]1Cc1ccccc1 [Citreoindole] the Tg_72h_%Growth_Rep1 [1, 4] was 97.80%, the Tg_72h_%Growth_Rep2 [1, 5] was 86.03% and the “1) Growth (%) at 72 h” value ([2]; P. falciparum, 2 μg/mL, 72 h) was 27.30%. For the same compound, the Pf_72h_%Growth_Rep1 [2, 6] was 25.03%, the Pf_72h_%Growth_Rep2 [2, 7] was 29.57% and the “2) Growth (%) at 120 h” value ([3]; P. falciparum, 2 μg/mL, 120 h) was 9.52%. The Pf_120h_%Growth_Rep1 [3, 8] was 10.68%, the Pf_120h_%Growth_Rep2 [3, 9] was 8.36% and the “3) Fold change (72 h/120 h)” value ([3]; P. falciparum, growth at 72 h / growth at 120 h, 2 μg/mL) was 2.9.

C=CC(C)(C)c1[nH]c2c(CC=C(C)C)cc(CC=C(C)C)cc2c1C[C@@H]1NC(=O)[C@H](C)NC1=O [Echinulin] was tested, and the percent parasite growth at 2 µg/mL ([1]; library screen at 2 μg/mL, % growth, replicate 1, read-out: Tg_72h_%Growth_Rep1) was 133%, the percent parasite growth at 2 µg/mL ([1]; library screen at 2 μg/mL, % growth, replicate 2, read-out: Tg_72h_%Growth_Rep2) was 104% and the activity at 2 µg/mL ([2]; library screen at 2 μg/mL, 72 h, % growth, replicate 1, read-out: Pf_72h_%Growth_Rep1) was 25.2%. For the same compound, the activity at 2 µg/mL ([2]; library screen at 2 μg/mL, 72 h, % growth, replicate 2, read-out: Pf_72h_%Growth_Rep2) was 35.1%, the activity at 2 µg/mL ([3]; library screen at 2 μg/mL, 120 h, % growth, replicate 1, read-out: Pf_120h_%Growth_Rep1) was 22.8% and the activity at 2 µg/mL ([3]; library screen at 2 μg/mL, 120 h, % growth, replicate 2, read-out: Pf_120h_%Growth_Rep2) was 39.3%.

In the case of CC[C@H]1CC2CN3CCc4c([nH]c5ccc(OC)cc45)[C@](C(=O)OC)(C2)[C@H]13 (stereo in doubt) [Voacangine], the percent parasite growth at 2 µg/mL ([1]; T. gondii, screen at 2 μg/mL, replicate 1, read-out: Tg_72h_%Growth_Rep1) is reported as 89.9%, the percent parasite growth at 2 µg/mL ([1]; T. gondii, screen at 2 μg/mL, replicate 2, read-out: Tg_72h_%Growth_Rep2) is reported as 96.7% and the activity at 2 µg/mL ([2]; P. falciparum, 72 h, screen at 2 μg/mL, replicate 1, read-out: Pf_72h_%Growth_Rep1) is reported as 86.5%. It also gave an activity at 2 µg/mL ([2]; P. falciparum, 72 h, screen at 2 μg/mL, replicate 2, read-out: Pf_72h_%Growth_Rep2) of 89.9%, an activity at 2 µg/mL ([3]; P. falciparum, 120 h, screen at 2 μg/mL, replicate 1, read-out: Pf_120h_%Growth_Rep1) of 164% and an activity at 2 µg/mL ([3]; P. falciparum, 120 h, screen at 2 μg/mL, replicate 2, read-out: Pf_120h_%Growth_Rep2) of 91%.

CCO[C@@H]1[C@@H](OC)[C@H](C)O[C@@H](O[C@H]2C[C@H]3[C@@H]4C=C5C(=O)[C@H](C)[C@@H](O)CCC[C@H](CC)OC(=O)C[C@H]5[C@@H]4C=C(C)[C@@H]3C2)[C@@H]1OC [spinosyn L 17-pseudoaglycone, 3'-Ethoxy-] was tested, and the Tg_72h_%Growth_Rep1 ([1]; T. gondii, parasite screen 2 μg/mL, % growth, replicate 1) was 97.87%, the Tg_72h_%Growth_Rep2 ([1]; T. gondii, parasite screen 2 μg/mL, % growth, replicate 2) was 88.47% and the Pf_72h_%Growth_Rep1 ([2]; P. falciparum, 72 h, parasite screen 2 μg/mL, % growth, replicate 1) was 17.82%. It also gave a Pf_72h_%Growth_Rep2 ([2]; P. falciparum, 72 h, parasite screen 2 μg/mL, % growth, replicate 2) of 8.15%, a Pf_120h_%Growth_Rep1 ([3]; P. falciparum, 120 h, parasite screen 2 μg/mL, % growth, replicate 1) of 6.02% and a Pf_120h_%Growth_Rep2 ([3]; P. falciparum, 120 h, parasite screen 2 μg/mL, % growth, replicate 2) of 1.27%.

O=C(N[C@H](CO)[C@H](O)c1ccc([N+](=O)[O-])cc1)C(Br)Br [Bromamphenicol] was tested, and the Tg_72h_%Growth_Rep1 [1, 4] was 80.35%, the Tg_72h_%Growth_Rep2 [1, 5] was 93.07% and the Pf_72h_%Growth_Rep1 [2, 6] was 93.46%. It also gave a Pf_72h_%Growth_Rep2 [2, 7] of 85.21%, a Pf_120h_%Growth_Rep1 [3, 8] of 132.78% and a Pf_120h_%Growth_Rep2 [3, 9] of 78.55%.
